What was measured:
[1] = test system: strains included in MTC01; assay: Antibiotic susceptibility, MIC by CLSI standards (Micromyx) and in-house etest; format: cell-based; conditions: highest value of CLSI and etest methods
Text: To be suitable for human trials, the strains in the bacterial consortium must be cultivatable in growth media that is free of animal products. The inventors discovered that all 16 bacterial strains can be cultured in a specific animal free media LYH_VIB (Table 7). All strains reach sufficient optical density (OD600) and potency (CFU/mL) cultured in LYH_VIB to be manufactured for human trials (Table 5). For safety considerations, the inventors focused on bacterial consortium strains that would be susceptible to multiple antibiotics. The inventors tested susceptibility to a range of antibiotics for all strains included in MTC01 and the minimal inhibitory concentration (MIC) was determined according to guidelines of the Clinical and Laboratory Standards Institute (CLSI). All strains were susceptible to multiple antibiotics (Table 6). […] The inventors confirmed that all 16 strains were strict anaerobes with no bacterial growth documented for any of the strains under aerobic conditions as confirmed by total aerobic microbial count (TAMC).
Each strain is susceptible to multiple antibiotics, and all strains are susceptible to three antibiotics (SAM, AMC, MEM). Minimum inhibitory concentrations (MIC) were determined by a CRO [Micromyx, LLC] according to CLSI standards and in-house by etest, keeping the highest value between the two methods: vancomycin (VAN), metronidazole (MTZ), tigecycline (TGC), ampicillin/sulbactam (SAM), amoxicillin/clavulanic acid (AMC), meropenem (MEM), piperacillin/tazobactam (TZP), clindamycin (CLI), ceftriaxone (CRO), moxifloxacin (MOX). […] Finally, multiple test fermentations were used to determine that the volumes for each manufacturing run are well within the 8L capacity of our current manufacturing set-up.

patients with rCDI = assay: Validation of bacterial strain engraftment through culturing from donor and recipient post-FMT; format: in vivo, human; conditions: 8 weeks post-FMT; number of strains of the species
Text: The isolation and sequencing of the transmitted strains from both the donor and the recipient represents a gold standard validation and verification of the commensal Koch’s postulates. […] The inventors cultured strains from 6 recipients both pre- and post-FMT (FIG. 2A) and compared the strain composition to that from the donor, to experimentally validate bacterial strain transmission.

Compound	susceptibility of all MTC01 strains to the antibiotic [1]	Cultured in both donor and recipient post-FMT at 8 weeks (patients with rCDI) [strains]
C[C@@H](O)[C@H]1C(=O)N2C(C(=O)O)=C(S[C@@H]3CN[C@H](C(=O)N(C)C)C3)[C@H](C)[C@H]12 [MEM, meropenem]	susceptible	–
Bacteroides cellulosilyticus	–	1
Bacteroides fragilis	–	1
Bifidobacterium longum	–	4
Parabacteroides distasonis	–	3
amoxicillin/clavulanic acid [AMC]	susceptible	–
ampicillin/sulbactam [SAM]	susceptible	–

Source: patent US20230310518A1, “Compositions and Methods for Treating Infections of the Gastrointestinal Tract” (Icahn School of Medicine at Mount Sinai, priority 2020, published 2023)
